Data as given in patent publication US20080292584A1 (priority 2005, published 2008).
Values joined by “and” are separate entries in the source; they are usually repeats but may differ in a detail not shown here. Identical values can stand only once. Like-named read-outs stand apart in the source and are kept apart here.

Experiments:
CYP2C8 = biological target: T1, CYP2C8 (Homo sapiens, UniProt P10632); assay: Inhibition of CYP2C8 activity in pooled human liver microsomes (paclitaxel 5 μM to 6-hydroxy paclitaxel); assay type: in vitro ADME
T1 sequence (P10632 1-490): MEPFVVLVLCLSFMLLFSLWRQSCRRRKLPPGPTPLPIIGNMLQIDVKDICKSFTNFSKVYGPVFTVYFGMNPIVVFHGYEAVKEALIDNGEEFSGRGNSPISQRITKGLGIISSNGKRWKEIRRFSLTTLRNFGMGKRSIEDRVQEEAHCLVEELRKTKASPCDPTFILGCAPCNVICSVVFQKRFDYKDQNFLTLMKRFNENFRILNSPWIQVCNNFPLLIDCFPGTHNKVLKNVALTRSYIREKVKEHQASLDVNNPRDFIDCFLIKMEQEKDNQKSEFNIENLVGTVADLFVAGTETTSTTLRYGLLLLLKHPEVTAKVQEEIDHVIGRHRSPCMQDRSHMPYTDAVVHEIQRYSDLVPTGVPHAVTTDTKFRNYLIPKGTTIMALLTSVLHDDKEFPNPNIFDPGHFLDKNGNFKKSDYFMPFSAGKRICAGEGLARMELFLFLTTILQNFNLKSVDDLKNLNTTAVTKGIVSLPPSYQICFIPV
Experimental: All other incubations were for 30 minutes.
Four replicates were performed.
Two replicates were performed.

CYP2C19 = CYP2C19 (Homo sapiens, UniProt P33261); conditions: for 4′-Hydroxymephenytoin formation Adjusted Individual / 4′-Hydroxymephenytoin formation Adjusted Mean ± SD: 4 h; for Percent of VC / Specific Activity Individual / Specific Activity Mean ± SD: 48 h
Description: Hepatocytes from three human donors were obtained from a cryopreserved hepatocyte bank (In Vitro Technologies, Inc., USA). After thawing, viable hepatocytes were transferred to collagen-coated 48-well plates for attachment in plating medium (DMEM stock (Dulbecco's modified Eagle's medium, supplemented with bovine serum albumin, fructose, N-(2-hydroxyethyl)piperazine-N′-(2-ethanesulfonate) (HEPES), and sodium bicarbonate), supplemented with antibiotics, bovine serum, hydrocortisone, insulin and minimum essential medium (MEM) nonessential amino acids). After attachment to the collagen matrix, plating medium was replaced with sandwich medium (plating medium supplemented with VITROGEN) and incubated until use.
The supplemented KHB was replaced with 150 μL supplemented KHB containing the appropriate isoform-selective substrate and incubated for 4 hrs prior to termination by adding 150 μL ice-cold methanol, except for the CYP2C8 incubations which were terminated by adding 150 μL acetonitrile.
All substrates were dissolved in acetonitrile.
Replicate trials and controls were performed. […] Additionally, reference control samples were included to evaluate inducibility of CYP2B6, CYP2C9, and CYP2C19 in the test system.
Mean specific activity values with associated p-values≦0.05 were deemed to be statistically significant.

CYP2B6 = biological target: T2, CYP2B6 (Homo sapiens, UniProt P20813); assay: Metabolism of metaxalone by expressed recombinant human CYP2B6 at 5 or 20 pmol (Example 4); conditions: for % Turnover Mean / [metaxalone] Mean / % Turnover % / [metaxalone]: 60 min; for % Turnover % / [metaxalone]: single replicates
T2 sequence (P20813 1-491): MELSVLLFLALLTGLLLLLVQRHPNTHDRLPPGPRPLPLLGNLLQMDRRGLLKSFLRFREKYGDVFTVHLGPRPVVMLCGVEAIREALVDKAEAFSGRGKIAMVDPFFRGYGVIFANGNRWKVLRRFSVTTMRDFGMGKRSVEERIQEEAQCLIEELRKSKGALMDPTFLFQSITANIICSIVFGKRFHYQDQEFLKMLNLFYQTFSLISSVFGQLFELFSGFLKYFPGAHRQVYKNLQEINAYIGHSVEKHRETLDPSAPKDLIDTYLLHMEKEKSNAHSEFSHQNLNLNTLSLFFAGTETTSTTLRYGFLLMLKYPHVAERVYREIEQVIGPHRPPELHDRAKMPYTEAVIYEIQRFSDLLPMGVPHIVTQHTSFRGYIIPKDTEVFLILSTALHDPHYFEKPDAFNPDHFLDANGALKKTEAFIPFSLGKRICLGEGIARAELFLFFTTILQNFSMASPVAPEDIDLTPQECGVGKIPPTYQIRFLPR

CYP3A4 = CYP3A4 (Homo sapiens, UniProt P08684); assay: Metabolism of metaxalone by expressed recombinant human CYP3A4 (Example 1); conditions: 30 min;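 also: microsomes holding 10 pmol P450, reactions started by an NADPH regenerating system after 5 min preincubation, 0.5 mL final volume, background signal taken from matrix controls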
Experimental: Commercially available microsomes from baculovirus-infected insect cells containing singly-expressed recombinant wild-type (*1 allele) human CYP enzymes and cDNA-expressed human cytochrome p450 oxidoreductase [BD SUPERSOMES Enzymes; BD Biosciences Discovery Labware (Woburn, Mass.)] were used.
After a 5-minute pre-incubation, an NADPH regenerating system (NRS) was added to the incubation mixtures to initiate reactions, with a final incubation volume of 0.5 mL. Incubations were continued for 30 minutes, and then terminated, except for those for CYP2C19, which were incubated for 36 minutes prior to termination.
Matrix controls were performed to determine the background signal from the matrix components (microsomes (10 pmol p450), 01N Tris buffer, NRS, and 1% methanol). […] After a 5-minute pre-incubation, 2% sodium bicarbonate solution was added to the incubation mixtures. Incubation was for 30 minutes at a final volume of 0.5 mL. Matrix and metabolic negative controls were terminated by adding an equal volume of methanol. […] Analysis of samples was subsequent to storage at −70° C.

[1] = 0.75 μM metaxalone, 5 pmol cyp, listed as Metaxalone
[2] = 0.75 μM metaxalone, 20 pmol cyp
[3] = 0.75 μM metaxalone, 20 pmol cyp, listed as Metaxalone
[4] = 7.5 μM metaxalone, 5 pmol cyp, listed as Metaxalone
[5] = 7.5 μM metaxalone, 20 pmol cyp, listed as Metaxalone

Chain of CYP2C19 (P33261 whole entry): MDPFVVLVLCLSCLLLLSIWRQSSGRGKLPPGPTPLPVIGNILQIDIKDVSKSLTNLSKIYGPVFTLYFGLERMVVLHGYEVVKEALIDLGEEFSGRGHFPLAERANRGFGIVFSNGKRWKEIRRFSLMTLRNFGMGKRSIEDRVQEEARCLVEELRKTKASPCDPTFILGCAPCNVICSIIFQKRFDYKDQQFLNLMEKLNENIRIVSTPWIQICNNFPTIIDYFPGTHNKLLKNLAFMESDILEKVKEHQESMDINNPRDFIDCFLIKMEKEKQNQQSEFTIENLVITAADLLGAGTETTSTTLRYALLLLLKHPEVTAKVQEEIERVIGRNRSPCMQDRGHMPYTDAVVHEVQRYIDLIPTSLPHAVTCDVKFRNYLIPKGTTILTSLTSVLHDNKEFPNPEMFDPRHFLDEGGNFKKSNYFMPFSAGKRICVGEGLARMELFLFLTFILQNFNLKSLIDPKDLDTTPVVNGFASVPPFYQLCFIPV
Chain of CYP3A4 (P08684 2-503 limits assumed): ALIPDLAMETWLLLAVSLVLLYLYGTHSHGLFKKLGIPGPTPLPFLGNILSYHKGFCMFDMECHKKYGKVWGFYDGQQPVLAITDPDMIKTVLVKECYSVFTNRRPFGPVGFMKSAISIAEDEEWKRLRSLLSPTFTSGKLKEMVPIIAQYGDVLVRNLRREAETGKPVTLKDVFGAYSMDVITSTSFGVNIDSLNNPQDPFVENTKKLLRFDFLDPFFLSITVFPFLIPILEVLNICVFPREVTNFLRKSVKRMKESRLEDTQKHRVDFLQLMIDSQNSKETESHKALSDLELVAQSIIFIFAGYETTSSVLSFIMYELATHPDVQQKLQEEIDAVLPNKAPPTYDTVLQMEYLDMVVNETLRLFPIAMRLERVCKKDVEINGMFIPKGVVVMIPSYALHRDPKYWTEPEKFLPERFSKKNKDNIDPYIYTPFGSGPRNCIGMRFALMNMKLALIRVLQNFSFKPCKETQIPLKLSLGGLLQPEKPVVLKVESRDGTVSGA

Structure (SMILES): Cc1cc(C)cc(OCC2CNC(=O)O2)c1 (stereo not shown) [metaxalone, 5-[(3,5-dimethylphenoxy)methyl]-2-oxazolidinone]
- inhibition of CYP activity at a statistically significant level (CYP2C8; 0.3-100 μM metaxalone): no tested concentration of metaxalone inhibited activity
- Inhibitor (CYP2C8; CYP isozyme 2C8, summary of studies): 0
- Percent of VC (CYP2C8; metaxalone 0.3 μM): 92.7%
- Specific Activity Individual (CYP2C8; metaxalone 0.3 μM): 19.3 pmol/min/mg protein and 15.2 pmol/min/mg protein and 16.1 pmol/min/mg protein
- Specific Activity Mean ± SD (CYP2C8; metaxalone 0.3 μM): 16.8 ± 2.18 pmol/min/mg protein
- Percent of VC (CYP2C8; metaxalone 1 μM): 103%
- Specific Activity Individual (CYP2C8; metaxalone 1 μM): 18.6 pmol/min/mg protein and 18.3 pmol/min/mg protein and 19.1 pmol/min/mg protein
- Specific Activity Mean ± SD (CYP2C8; metaxalone 1 μM): 18.7 ± 0.406 pmol/min/mg protein
- Percent of VC (CYP2C8; metaxalone 3 μM): 109%
- Specific Activity Individual (CYP2C8; metaxalone 3 μM): 20.0 pmol/min/mg protein and 19.9 pmol/min/mg protein and 19.6 pmol/min/mg protein
- Specific Activity Mean ± SD (CYP2C8; metaxalone 3 μM): 19.9 ± 0.232 pmol/min/mg protein
- Percent of VC (CYP2C8; metaxalone 30 μM): 101%
- Specific Activity Individual (CYP2C8; metaxalone 30 μM): 19.9 pmol/min/mg protein and 18.3 pmol/min/mg protein and 16.9 pmol/min/mg protein
- Specific Activity Mean ± SD (CYP2C8; metaxalone 30 μM): 18.4 ± 1.52 pmol/min/mg protein
- Percent of VC (CYP2C8; metaxalone 100 μM): 97.8%
- Specific Activity Individual (CYP2C8; metaxalone 100 μM): 17.6 pmol/min/mg protein and 20.6 pmol/min/mg protein and 15.1 pmol/min/mg protein
- Specific Activity Mean ± SD (CYP2C8; metaxalone 100 μM): 17.8 ± 2.76 pmol/min/mg protein
- Inducer/Inhibitor (CYP2C19): 0
- 4′-Hydroxymephenytoin formation Adjusted Individual (CYP2C19; 0.4 µM): <0.0500 µM
- 4′-Hydroxymephenytoin formation Adjusted Mean ± SD (CYP2C19; 0.4 µM): <0.0500 ± 0.000 µM
- 4′-Hydroxymephenytoin formation Adjusted Individual (CYP2C19; 0.4 μM): <0.0500 µM
- 4′-Hydroxymephenytoin formation Adjusted Mean ± SD (CYP2C19; 0.4 μM): <0.0500 ± 0.000 µM
- 4′-Hydroxymephenytoin formation Adjusted Individual (CYP2C19; 4 µM): <0.0500 µM
- 4′-Hydroxymephenytoin formation Adjusted Mean ± SD (CYP2C19; 4 µM): <0.0500 ± 0.000 µM
- 4′-Hydroxymephenytoin formation Adjusted Individual (CYP2C19; 4 μM): <0.0500 µM
- 4′-Hydroxymephenytoin formation Adjusted Mean ± SD (CYP2C19; 4 μM): <0.0500 ± 0.000 µM
- 4′-Hydroxymephenytoin formation Adjusted Individual (CYP2C19; 40 µM): <0.0500 µM
- 4′-Hydroxymephenytoin formation Adjusted Mean ± SD (CYP2C19; 40 µM): <0.0500 ± 0.000 µM
- 4′-Hydroxymephenytoin formation Adjusted Individual (CYP2C19; 40 μM): <0.0500 µM
- 4′-Hydroxymephenytoin formation Adjusted Mean ± SD (CYP2C19; 40 μM): <0.0500 ± 0.000 µM
- Percent of VC (CYP2C19; 0.4 µM): 100%
- Specific Activity Individual (CYP2C19; 0.4 µM): <0.446 pmol/min/million cells
- Specific Activity Mean ± SD (CYP2C19; 0.4 µM): <0.446 ± 0.000 pmol/min/million cells
- Percent of VC (CYP2C19; 0.4 μM): 100%
- Specific Activity Individual (CYP2C19; 0.4 μM): <0.446 pmol/min/million cells
- Specific Activity Mean ± SD (CYP2C19; 0.4 μM): <0.446 ± 0.000 pmol/min/million cells
- Percent of VC (CYP2C19; 4 µM): 100%
- Specific Activity Individual (CYP2C19; 4 µM): <0.446 pmol/min/million cells
- Specific Activity Mean ± SD (CYP2C19; 4 µM): <0.446 ± 0.000 pmol/min/million cells
- Percent of VC (CYP2C19; 4 μM): 100%
- Specific Activity Individual (CYP2C19; 4 μM): <0.446 pmol/min/million cells
- Specific Activity Mean ± SD (CYP2C19; 4 μM): <0.446 ± 0.000 pmol/min/million cells
- Percent of VC (CYP2C19; 40 µM): 100%
- Specific Activity Individual (CYP2C19; 40 µM): <0.446 pmol/min/million cells
- Specific Activity Mean ± SD (CYP2C19; 40 µM): <0.446 ± 0.000 pmol/min/million cells
- Percent of VC (CYP2C19; 40 μM): 100%
- Specific Activity Individual (CYP2C19; 40 μM): <0.446 pmol/min/million cells
- Specific Activity Mean ± SD (CYP2C19; 40 μM): <0.446 ± 0.000 pmol/min/million cells
- % Turnover Mean (CYP2B6; 0.75 μM metaxalone, 5 pmol cyp): −6.8%
- [metaxalone] Mean (CYP2B6; 0.75 μM metaxalone, 5 pmol cyp): 0.845 µM
- % Turnover % (CYP2B6; [1]): −11.0% and −2.8% and −6.6%
- [metaxalone] (CYP2B6; [1]): 0.878 µM and 0.813 µM and 0.843 µM
- % Turnover Mean (CYP2B6; [2]): −1.8%
- [metaxalone] Mean (CYP2B6; [2]): 0.805 µM
- % Turnover % (CYP2B6; [3]): 5.5% and −6.7% and −4.0%
- [metaxalone] (CYP2B6; [3]): 0.748 µM and 0.845 µM and 0.823 µM
- % Turnover Mean (CYP2B6; 7.5 μM metaxalone, 5 pmol cyp): 3.0%
- [metaxalone] Mean (CYP2B6; 7.5 μM metaxalone, 5 pmol cyp): 8.20 µM
- % Turnover % (CYP2B6; 7.5 μM metaxalone, 5 pmol cyp): −1.3%
- % Turnover % (CYP2B6; [4]): 3.0% and 7.2%
- [metaxalone] (CYP2B6; [4]): 8.56 µM and 8.19 µM and 7.84 µM
- % Turnover Mean (CYP2B6; 7.5 μM metaxalone, 20 pmol cyp): −0.20%
- [metaxalone] Mean (CYP2B6; 7.5 μM metaxalone, 20 pmol cyp): 8.46 µM
- % Turnover % (CYP2B6; 7.5 μM metaxalone, 20 pmol cyp): −6.0%
- % Turnover % (CYP2B6; [5]): 1.8% and 3.6%
- [metaxalone] (CYP2B6; [5]): 8.95 µM and 8.29 µM and 8.14 µM
- Substrate (CYP2B6; CYP isozyme 2B6, summary of studies): 0
- Metaxalone Present Adjusted Individual (CYP3A4; metaxalone 0.5 μM): 0.320 µM and 0.323 µM and 0.317 µM
- Metaxalone Present Adjusted Mean ± SD (CYP3A4; metaxalone 0.5 μM): 0.320 ± 0.00333 µM
- Metaxalone Present Raw (CYP3A4; metaxalone 0.5 μM): 0.1598 µM and 0.1616 µM and 0.1583 µM
- Percent of Metabolic Negative Control Individual (CYP3A4; metaxalone 0.5 μM): 101% and 102% and 99.6%
- Percent of Metabolic Negative Control Mean ± SD (CYP3A4; metaxalone 0.5 μM): 101 ± 1.05%
- Metaxalone Present Adjusted Individual (CYP3A4; metaxalone 2.5 μM): 1.71 µM and 1.66 µM and 1.67 µM
- Metaxalone Present Adjusted Mean ± SD (CYP3A4; metaxalone 2.5 μM): 1.68 ± 0.0289 µM
- Metaxalone Present Raw (CYP3A4; metaxalone 2.5 μM): 0.8573 µM and 0.8292 µM and 0.8374 µM
- Percent of Metabolic Negative Control Individual (CYP3A4; metaxalone 2.5 μM): 99.8% and 96.5% and 97.5%
- Percent of Metabolic Negative Control Mean ± SD (CYP3A4; metaxalone 2.5 μM): 98.0 ± 1.68%
- Percent of Metabolic Negative Control Individual (CYP3A4; metaxalone 25 μM): 98.1% and 97.1% and 99.3%
- Percent of Metabolic Negative Control Mean ± SD (CYP3A4; metaxalone 25 μM): 98.1 ± 1.10%
